System: patients with moderate to severe COPD
Test: Multi-centre, randomized, double-blind, placebo-controlled clinical study of nebulised ensifentrine in COPD (spirometry, FEV1)
Assay type: in vivo
Details: 3 mg BID by nebuliser
Method: A clinical study was conducted to determine the efficacy of ensifentrine in treating COPD compared with placebo. Ensifentrine was administered by nebuliser at a dose of 3 mg twice daily (BID) for 24 weeks. The study was a multi-centre, randomized, double-blind, parallel-group, placebo-controlled trial with around 800 patients and 5:3 randomization.
The study population included patients aged 40-80 years with moderate to severe COPD (FEV130%-70% p.n., FEVi/forced vital capacity [FVC] ratio <0.7, with mMRC ≥2). The randomization stratified (a) the use of stable background maintenance LAMA or LABA therapy use (approx. 50%. yes or no) and (b) cigarette smoking (current or former). Inhaled corticosteroid (ICS) maintenance therapy was permitted in up to 20% of patients under certain provisions.
The primary endpoint of the study was change from baseline in average FEV1 area under the curve (AUC)0-12h post-dose at week 12. Secondary endpoints of the study included: peak FEV1 over 4 hours post-dose at Week 12; morning trough FEV1 at Week 12; and other endpoints including moderate/severe COPD exacerbations frequency over 24 Weeks.
Baseline FEV1 is the mean of the two measurements taken before study medication on the day of first dosing, i.e. ≤40 minutes and just prior to dosing, pre-dose on day 1.
Average FEV1 AUCO-12h is defined as area under the curve over 12 hours of the FEV1, divided by 12 hours.
Morning trough FEV1 at Week 12 is defined as the FEVi assessed at 11.5 to 12 hours following the prior evening dose.
The investigational product and placebo were provided in 2.5 mL unit dose format in an ampule and administered via a nebuliser.

COc1cc2c(cc1OC)-c1c/c(=N\c3c(C)cc(C)cc3C)n(CCNC(N)=O)c(=O)n1CC2 [Ensifentrine]
Morning Trough FEV1 Week 12: CFB Least Squares Mean, mL (95% CI) (Week 12, FEV1 at 11.5 to 12 hours following the prior evening dose): 6.3 (−12.3, 24.9) mL | Morning Trough FEV1 Week 12: Placebo-corrected CFB LS Mean Diff., mL (95% CI) (Week 12, versus placebo): 48.9 (18.3, 79.5) mL | Improvement in lung function in all subgroups (average FEV1 (AUC)0-12h at Week 12), result in words (all subgroups): All subgroups showed improvement in lung function with ensifentrine that was statistically significant | Morning trough FEV1 at week 12, result in words (week 12): statistically significant effect
